Measurements from patent US9623063B2, “Extracts from Ajuga reptans cell lines, their preparation and use” (I.R.B. ISTITUTO DI RICERCHE BIOTECNOLOGICHE S.r.l., priority 2005, dated 2017).
In brackets after ≈: the same amount, converted by molar mass. Like-named read-outs stand apart in the source and are kept apart here.

Legend:
[1] = Metal chelation, spectrophotometric (Cu2+); format: physicochemical
Text: The chelating activities of Ajuga reptans extracts in relation to Fe^2+, Fe^3+, Cu^2+ and Ni^2+ metal ions has been determined by means of spectrophotometric measurements using a Shimadzu 1770 UV spectrophotometer. The activities of chelating agents depends on the association constant (equilibrium) of their reactions with the metals according to the following reaction:
[formula] wherein Keq is the equilibrium constant equal to the ratio of concentrations at equilibrium of a complex and a product of equilibrium concentrations of metal ions and a chelator:
The method used for determining chelating activities is well documented in the literature (Korkina L G, Afarras'er I B. Antioxidant and chelating properties of flavonoids. Adv. Pharmacol., 1997, 38:151-63). The results are expressed as Keq (M^−1) calculated for a pure phenylpropanoid. This way the chelating activity against ferrous (Fe II), ferric (Fe III), copper (Cu II) and nickel ions has been calculated.

white blood cells = experiment: Luminol dependent chemiluminescence of PMA-stimulated white blood cells; format: cell-based; conditions: Homo sapiens, 0.5 h, read-out: White blood cell chemiluminescence (IC50 mg/ml)
Method: Anti-inflammatory activity has been assessed by measuring luminol dependent chemiluminescence generated by free radicals released from whole blood and from white blood cells. The assay has been performed using the following protocol: 10 μl of fresh human blood is mixed with 0.980 ml of Hanks saline solution containing 5×10^−5 M luminol and the test sample (at various concentrations). The chemiluminescent response is recorded continuously for 30 minutes at a temperature of 37° C. The results are expressed as IC50 (mg/ml), i.e. as the minimum sample concentration inhibiting chemiluminescence by 50% with respect to the control. To isolate white blood cells (WBC) from whole blood one proceeds in the following manner: 1 ml of fresh blood is layered onto a Hipaque gradient (p=1.119) and centrifuged at 250×g for 60 minutes at room temperature. Following centrifugation, the pellet containing the white blood cells is washed twice, using a large volume of cold Hanks saline solution. Finally, the washed WBCs are resuspended in 0.1 ml di HBSS containing foetal calf serum. 10^6 WBC are added to a chemiluminometer cuvette. 10 μl of PMA (final concentration equal to 10 nM) are added to induce the formation of free radicals. The chemiluminescent response is recorded continuously for 30 minutes at a temperature of 37° C. […]

[2] = biological target: T1, 5 alpha reductase, type II (Homo sapiens, UniProt P31213); experiment: Type II 5 alpha reductase inhibition ([14C] testosterone conversion); format: biochemical
T1 construct: made in house; host or cells: genetically modified yeast
T1 sequence (P31213 1-254): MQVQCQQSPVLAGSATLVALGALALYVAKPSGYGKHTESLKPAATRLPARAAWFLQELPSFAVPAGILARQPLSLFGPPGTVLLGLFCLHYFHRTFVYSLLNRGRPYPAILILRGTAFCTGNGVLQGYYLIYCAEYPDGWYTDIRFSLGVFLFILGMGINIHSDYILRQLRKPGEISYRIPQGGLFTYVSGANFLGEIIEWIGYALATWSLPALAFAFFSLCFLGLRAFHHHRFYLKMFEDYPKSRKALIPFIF
Text: Determination of the 5 alpha reductase inhibitory activities by Ajuga reptans extracts in comparison to Serenoa repens extracts. Said determination has been performed using enzymes (5 alpha reductase, type I and type II) produced by genetically modified yeast. Enzyme activities have been determined in the presence of Ajuga reptans extracts, teupolioside, isoteupolioside and Serenoa repens extracts.
Determination of the type II 5 alpha reductase activity has been performed in an analogous manner to that just described, with the exception of a different pH value for the 0.1 M Tris-citrate buffer (pH 5.0).
In both assays, the steroids have been extracted using 5 ml of methylene chloride. The extracts have then been dried under a stream of nitrogen and the dried residues obtained have been dissolved in 20 μl of a chloroform-methanol mixture (2:1 v/v). An aliquot of said mixture has been deposited on the surface of a silica gel TLC plate. […] For quantification of the results, the spots have been scraped from the TLC plate and extracted with 2 ml of ethyl acetate. The extracts obtained have been analysed, using scintillation fluid, with the aid of a Wallach β-counter. The enzyme activity has been calculated from the percentage conversion (C %) of the substrate into final product: C%=[counted product/(counted substrate+product)]×100.

tyrosinase = experiment: Tyrosinase inhibition, conversion of L-DOPA to DOPAquinone; format: biochemical; conditions: 100 μg/ml
Text: The enzyme tyrosinase catalyses the reactions leading to melanin biosynthesis from tyrosine. […] Substances inhibiting tyrosinase activity produce a clearing/bleaching effect on the skin, since they block melanin synthesis. The method used to determine the inhibition of tyrosinase activity in the oxidation reaction of L-tyrosine to L-DOPA is that described in Kim et al. […] Biol. Pharm. […] The method applied for determination of the inhibition of tyrosinase activity in the conversion of L-DOPA to DOPAquinone is that described in Masamoto et al. (Mushroom tyrosinase inhibitory activity of esculetin isolated from seeds of Euphorbia lathyris L. Biosci. Biotechnol. Biochem., 67(3), 631-634, 2003).

[3] = test system: Candida albicans ATCC 2091; experiment: Multiple dilution assay, growth in culture broth; format: cell-based; conditions: for T0 (CFU/ml) / T7d (CFU/ml) / T14d (CFU/ml) / T21d (CFU/ml) / T28d (CFU/ml): 30° C.; for T7d (CFU/ml): 7 days; for T14d (CFU/ml): 14 days; for T21d (CFU/ml): 21 days; for T28d (CFU/ml): 28 days
Method: To the purpose of detecting any antimicrobial activity of the Ajuga reptans extract and the individual phenylpropanoid isoteupoloside (FPD) and teupolioside (FPA), an assay has been prepared, generally known as multiple dilution assay, with the following microbial strains: Pseudomonas aeruginosa ATCC 9027; Candida albicans ATCC 2091. The phenylpropanoids FPD, FPA and the Extract 2 of Ajuga reptans were assayed at the concentrations of 0.5 mg/ml, 2 mg/ml and 5 mg/ml. The microbial strains for the test were inoculated in culture broths (in Triptone soy broth medium) containing the substances to be assayed at the concentrations described above. In parallel with these tests, culture broths containing the microbial strain alone have been prepared (controls). The culture-broths have been incubated at 30° C. for a period of 28 days. […] A certain number of serial dilutions have been prepared for each sample in order to determine the microbial load of each culture-broth. Each dilution has been assayed in triplicate on solid medium. Then number of CFUs reported in the table is the mean of the counts performed on the triplicate assays.

For `CC1OC(OC2C(O)C(COC(=O)C=Cc3ccc(O)c(O)c3)OC(OCCc3ccc(O)c(O)c3)C2O)C(OC2OC(CO)C(O)C(O)C2O)C(O)C1O` (stereo not shown) [Isoteupolioside, isoteupolioside], the “Cu^2+ (Keq, M^−1)” value [1] was 70000 ± 20000 M⁻¹, the IC50 (white blood cells) was 0.4 mg/mL (≈ 508 µM) and the IC50 [2] was 33 µM. For the same compound, the “Test LDOPA-DOPAquinone inhibitory activity (%)” value (tyrosinase) was 20%, the “T0 (CFU/ml)” value ([3]; 0.5 mg/ml) was 9.7 × 10^5 CFU/ml and the “T7d (CFU/ml)” value ([3]; 0.5 mg/ml) was 1.7 × 10^6 CFU/ml. For the same compound, the “T14d (CFU/ml)” value ([3]; 0.5 mg/ml) was 5.8 × 10^5 CFU/ml, the “T21d (CFU/ml)” value ([3]; 0.5 mg/ml) was 7.3 × 10^7 CFU/ml and the “T28d (CFU/ml)” value ([3]; 0.5 mg/ml) was 6.5 × 10^7 CFU/ml. For the same compound, the “T0 (CFU/ml)” value ([3]; 2 mg/ml) was 9.1 × 10^5 CFU/ml, the “T7d (CFU/ml)” value ([3]; 2 mg/ml) was 1.1 × 10^6 CFU/ml and the “T14d (CFU/ml)” value ([3]; 2 mg/ml) was 2.3 × 10^6 CFU/ml. The “T21d (CFU/ml)” value ([3]; 2 mg/ml) was 1.2 × 10^5 CFU/ml, the “T28d (CFU/ml)” value ([3]; 2 mg/ml) was 3.8 × 10^3 CFU/ml and the “Inhibiting action on the growth of Candida albicans ATCC 2091, in words” value ([3]; 5 mg/ml) was “significant inhibiting action”. The “T0 (CFU/ml)” value ([3]; 5 mg/ml) was 8.1 × 10^5 CFU/ml, the “T7d (CFU/ml)” value ([3]; 5 mg/ml) was 3.1 × 10^5 CFU/ml and the “T14d (CFU/ml)” value ([3]; 5 mg/ml) was 8.5 × 10^3 CFU/ml. For the same compound, the “T21d (CFU/ml)” value ([3]; 5 mg/ml) was 5 × 10^1 CFU/ml.
For `C[C@@H]1O[C@@H](O[C@@H]2[C@@H](O)[C@H](OCCc3ccc(O)c(O)c3)O[C@H](CO)[C@H]2OC(=O)/C=C/c2ccc(O)c(O)c2)[C@H](O[C@@H]2O[C@H](CO)[C@H](O)[C@H](O)[C@H]2O)[C@H](O)[C@H]1O` [Teupolioside, teupolioside], the “Cu^2+ (Keq, M^−1)” value ([1]; calculated for a pure phenylpropanoid) was 80000 ± 30000 M⁻¹, the IC50 (white blood cells; 10^6 WBC, PMA 10 nM, 30 min, 37° C.) was 0.5 mg/mL (≈ 636 µM) and the IC50 ([2]; second column of Table 9, pH 5.0, 5 μM testosterone, read-out: Type II 5 alpha reductase inhibition (IC50) (converted)) was 30.5 µM. The “Test LDOPA-DOPAquinone inhibitory activity (%)” value (tyrosinase) was 21%, the “Anti-microbial activity on Candida albicans ATCC 2091, comparison in words” value [3] was “activity similar to isoteupolioside” and the “Inhibiting action on the growth of Candida albicans ATCC 2091, in words” value ([3]; 5 mg/ml) was “significant inhibiting action”.
